Laboratory results from patent publication US20240342121A1, “THE USE OF BETA-HYDROXYBUTYRATES FOR THE TREATMENT OR PREVENTION OF ANEURYSMS AND DISSECTIONS” (priority 2021, published 2024).
Entries after “also recorded” stand apart in the source; their conditions may differ.

Experiments:
[1] = system: angiotensin II (AII)-induced AAA; assay: AII-induced AAA mouse model, post-treatment; format: in vivo
Excerpt: To determine if senescence is a major cause of aneurysm development, the association between senescence and aneurysms using the angiotensin II (AII)-induced AAA model was investigated. Mice were infused AII for four weeks using osmotic mini-pump implantation into Apoe^−/− transgenic mouse.
To investigate the therapeutic potential of ketotherapy for abdominal aortic aneurysm (AAA), Ketogenic-diet (KD) and Ketone-ester (KE) were provided to angiotensin II (AII)-induced mouse model of AAA (FIG. 6). […] After completing AII infusion, the mice were post-treated with KD and KE for two to four weeks.
To investigate the time-dependent reduction of aorta diameter, the inner diameter of the aorta using ultrasound analysis was measured.

[2] = Metabolic alterations by post-treatment; format: in vivo, mouse; conditions: four weeks, FIG. 7
Excerpt: In order to identify the primary factors for reversing AAA formation, metabolic alterations by post-treatment were investigated. […] Thus, abnormal lipid metabolism caused by KD is unlikely required or helpful for AAA recovery.

[3] = system: AII-induced AAA development; assay: Pretreatment with ketotherapy in AII-induced AAA; format: in vivo, mouse; conditions: FIG. 8A-C
Excerpt: Senescence is considered to be major risk factor that promotes AAA development. […] To determine whether vascular senescence is critical for AAA formation, senescence was prevented by pretreatment with ketotherapy.
(§1) To confirm the possibility that the therapeutic effect of βHB on AAA is not only applied to AII-induced AAA, the CaCl2)-induced AAA animal model was also examined as well (FIG. 5A).

CaCl2-induced AAA = CaCl2-induced AAA animal model, post-treatment; format: in vivo, mouse
Protocol: FIGS. 5A-5J. (a) Representative image of aorta which developed CaCl2)-induced AAA, and post-treated with KD, KE, βHB, s-βHB, or ABT-737. KD is provided to mice for 4 weeks, KE is administrated with drinking water, βHB, s-βHB or ABT-737 are IP injected for 2 weeks with 48h intervals. (b) Incidence of AAA by CaCl2) treatment and proportion of mice recovered from the AAA after post-treatment of KD, KE, βHB and s-βHB for 2 weeks. (c) Time-dependent observation of inner diameter after CaCl2) treatment and post-treatment of KD or KE (28˜56 days after surgery). (d) Comparison of ultrasound images of CaCl2)-induced AAA to the identical aorta post-treated with βHB for 2 weeks. (e) H&E staining of aorta from the mice developed with CaCl2)-induced AAA, and post-treated with KD, KE, βHB, and s-βHB. (f) SA β-Gal activity assay on aorta which developed CaCl2)-induced AAA, and post-treated with KD, KE, βHB, s-βHB, or ABT-737. (g) Quantitation of senescent area on aorta developed with CaCl2)-induced AAA, and post-treated with KD, KE, βHB, s-βHB. (h) Verhoeff Van Gieson/EVG staining of abdominal aorta developed with CaCl2)-induced AAA, post-treated with KD, KE, βHB and s-βHB. (i) Average number of elastic fibers on abdominal aorta presented at FIG. 5H. (j) Measurement of Pulse Wave Velocity (PWV) on CaCl2)-infused mice with post-treatment of KD, KE, βHB, and s-βHB.
as §1
To further validate the therapeutic efficacy of s-βHB on aneurysms, we used a CaCl2-induced AAA animal model as well as an angiotensin II infusion model. […] Two-way ANOVA, s-βHB vs βHB, #P<0.01, n=10. Since the elimination of senescent SMCs is critical for the recovery of AAA, we investigated that s-βHB is also effective to remove senescent cells in CaCl2)-induced aneurysms. […] Student's T-test for s-βHB vs βHB, ^#P<0.05, n=8.

[4] = system: aortic dissection (TAD, AAD); assay: BAPN + AngII mouse model of aortic dissection; format: in vivo
Protocol: (§2) (a) schematic description of aortic dissection model and ketone treatment. Five-week-old C57BL/6 mice were continuously treated with β-aminopropionitrile (BAPN, 3 g/L/day in drinking water) for 28 days. To test the impacts of ketone body, BAPN-treated mice at day 17 to day 31 were given ketone ester (KE, D-BHB 1-3 butanediol monoester) (20 g/L and 50 gL at 5 mL per day) in drinking water. Further, the BAPN-treated mice, with or without ketone treatment, were continuously infused with angiotensin (AngII, 1.44 mg/kg/day) for three days via subcutaneously implanted osmotic pumps). Three days after AngII infusion, the mice were euthanized to assay for aortic dissection.
as §2, with “Five week old C57BL/6” for “(a) schematic description of aortic dissection model and ketone treatment. Five-week-old C57BL/6”, “drinking water))” for “drinking water)”, “50 g/L)” for “50 gL at 5 mL per day)”, “euthanized for” for “euthanized to”, “assay” for “assay for”

[5] = Soto-Mota et al. 2019; cited from earlier work
normal SMCs (NC) = assay: Caspase 3 activity assay on normal SMCs; format: cell-based; conditions: FIG. 2I
Protocol: FIGS. 2A-2L. (a) Cytotoxicity assay of normal smooth muscle cells (NS) and senescent smooth muscle cells (SMCs). Replicative senescent SMCs (RS) and premature senescent SMCs, stimulated by H2O2 (HP), arsenic (Ars), and Nutlin 3a (Nut) treatment were treated with βHB, s-βHB, and ABT-737. (b) Flow cytometry analysis of apoptosis by βHB or s-βHB in radiation (10 Gy)-induced senescent SMC. (c) Quantitation of apoptotic cell and senescent cell after treating βHB and s-βHB in radiation-induced senescent SMC. (d) Representative aorta image of AII-infused mice with post-treatment of ABT-737, βHB and s-βHB. (e) External diameter of abdominal aorta infused with AII and post-treated with ABT-737 βHB and s-βHB. (f) SA-βGal activity assay of the whole aorta infused with AII, and post-treated with ABT-737, KD, or KE. (g) Quantitation of senescent area on aorta of AII-infused mice, and post-treated with KD, KE and ABT-737. (h) TUNEL assay on the abdominal aorta of AII infused mice, and treated with ABT-737, βHB, or s-βHB. SM-α Actin (SMA) and DAPI are co-stained after TUNEL reaction. (i) Caspase 3 activity assay on normal SMCs (NC) treated with βHB, or s-βHB, and ABT-737 comparing to normal cells pretreated with Nutlin-3a. (j) Caspase 3 activity assay on senescent SMCs (SNC) treated with βHB, or s-βHB, and ABT-737 compared to senescent cells pretreated with pifithrin-α. (k) Western blot analysis for p53 and puma expression on abdominal aorta tissue from mice treated with AII or KE. (I) Immunohistochemistry staining for puma expression on abdominal aorta infused by AII and post-treated with KE.
To overcome the anti-apoptotic barrier of senescence cells, senolytics usually target p53/Bcl2 cascades. Moreover, p53 is considered as a barrier to prevent apoptosis in senescence cells. Therefore, it was investigated if βHB-mediated apoptosis is p53 dependent. […] To further validate p53 dependent apoptosis on AAA, p53 activation and puma expression were investigated. […] In addition, inflammatory response accompanying the apoptosis of senescence cells was observed specifically in the abdominal aorta tissue, while systemic inflammation decreased during ketotherapy (FIGS. 10A-F). […] Ketotherapy can lower the blood pressure caused by AII infusion, which is not the case with ABT-737 (FIGS. 10H-J).

[6] = system: angiotensin II (AII)-induced AAA; assay: AII-induced AAA mouse model, post-treatment; format: in vivo; conditions: injection every other day for two weeks, FIG. 2E

C[C@@H](O)CCOC(=O)C[C@@H](C)O [KE, [(3R)-3-hydroxybutyl] (3R)-3-hydroxybutanoate]
aneurysm formation, ultrasound images of identical mouse aorta ([1]; FIG. 1D): reverts aneurysm formation | abdominal aorta stiffness, Pulse Wave Velocity (PWV) ([1]; FIG. 3H, FIG. 18A): ameliorated vascular stiffness; also recorded: reversed aneurysm-associated aortic stiffness | SMC markers (HEXIM1, Calponin 1, SM α-Actin) and dedifferentiation markers (Oct4, MMP2), Western blot ([1]; abdominal aorta, post-treatment, FIG. 3E): reversed all the markers of dedifferentiation and simultaneously recovered SMC markers | degenerative markers in PVAT ([1]; abdominal versus thoracic PVAT, FIG. 3G): specifically reverses degenerative markers, col1A1, RUNX2, and PU.1 in abdominal perivascular adipose (PVAT), not in thoracic PVAT | recovered proportion of AII-induced AAA ([1]; post-treatment 2 to 4 weeks after 4 weeks AII infusion, C57Bl6 ApoE−/− mice, AAA incidence 60%, FIG. 1A): 26% | proportion of AII-induced AAA ([1]; post-treatment 2 to 4 weeks, FIG. 1A): successfully reduced | enlarged external diameter of AAA ([1]; post-treatment of KD and KE, FIG. 1C): decreased significantly | collagen network, Masson's trichrome staining ([1]; post-treatment, FIG. 3F): reconstituted at the perivascular area | myofibroblast, SM α-Actin and FSP co-staining in aortic wall ([1]; post-treatment, FIGS. 17A-17B): increases | p53 activation and puma expression on abdominal aorta ([1]; post-treatment, Western blot and IHC, FIG. 2K): activated phosphorylation of p53 and elevated puma expression | metabolic alterations (body weight, fat mass, blood glucose, TG, liver lipid, insulin resistance) [2]: did not cause metabolic changes such as insulin resistance | AII-induced AAA development [3]: strongly inhibited | recovery from CaCl2-induced AAA (CaCl2-induced AAA; FIGS. 5A and 5B): Effective recovery | AAA progression (CaCl2-induced AAA; post-treatment after four weeks, FIG. 5C): inhibited AAA progression | incidence of TAD ([4]; 20 g/L and 50 g/L in drinking water, day 17 to day 31, FIG. 19B): significantly reduces | incidence of AAD ([4]; 20 g/L and 50 g/L in drinking water, day 17 to day 31, FIG. 19C): significantly reduces | survival rate ([4]; high dose 50 g/L, FIG. 19D): significantly increase | metabolic fate (hydrolysis) [5]: complete enzymatic hydrolysis to release R-βHB and R-butane-1,3-diol

CN(C)CC[C@H](CSc1ccccc1)Nc1ccc(S(=O)(=O)NC(=O)c2ccc(N3CCN(Cc4ccccc4-c4ccc(Cl)cc4)CC3)cc2)cc1[N+](=O)[O-] [ABT-737, reference compound]
TUNEL assay, apoptosis of senescent plaque in the aneurysm ([1]; FIG. 2H): induced targeted apoptosis of senescent plaque | branched elastic fibers, Verhoeff Van Gieson/EVG stain ([1]; FIG. 3C): less branched elastic fibers | number of elastic layers / elastic recovery ([1]; FIG. 3D): less effective on elastic recovery | aortic dissection ([1]; blood clots inside aneurysm plaque, FIG. 3B): caused aortic dissection | volume of aneurysm plaque ([1]; injected): successfully reduced | AAA on whole aorta images ([1]; injected every other day for two weeks, FIG. 2D): successfully rescued | mice with abdominal rupture resulting in sudden death ([1]; injected mice, FIG. 3A): 30% | apoptosis in normal cells after p53 stabilization (normal SMCs (NC); after p53 stabilization by Nutlin 3a): triggers apoptosis | apoptosis in normal cells (NC) (normal SMCs (NC); without Nutlin 3a): did not induce apoptosis | external diameter of the abdominal aorta [6]: significantly reduced
